Assay results taken from a melting point compilation (Tetko et al.; mined from patent text by program, amines drawn as free bases though some values may be those of a salt).

SMILES | melting point [°C]
Nc1sc(CC(C(=O)O)C(=O)O)cc1C(=O)c1ccccc1Cl | 150 to 160
C=C1CC2C3CCC4=CC(=O)C=CC4(C)C3=CCC2(C)C1=O (configuration not stated) | 157 to 160
CCCNC(=O)c1cnc2c(C)cccn2c1=O | 138 to 140
Cc1cc(C(=O)O)cc(Cl)c1O | 242 to 244
Cc1cc(SCc2ccnc3c2nc(-c2ccc(C(F)(F)F)cc2)n3C)ccc1CCC(=O)O | 89 to 91
O=C(O)CCc1cc2cc(Cl)ccc2n1S(=O)(=O)c1ccc2ncsc2c1 | 96 to 100
CC(C)(C)n1cnc2c1c1ccccc1n1nnnc21 | 224 to 226
Cc1c(S(=O)(=O)c2ccc(Cl)cc2)cc(C(C)C)c(O)c1C(=O)O | 165 to 166
O=c1oc(-c2ccc(S(=O)(=O)c3ccccc3)cc2)cc(O)c1SCCc1ccccc1 | 194 to 195
Clc1cc(Cl)c2cccc3c2c1N=C3NCCCCCn1ccnc1 | 191 to 192
CC#CCOc1ccc(S(=O)(=O)NC(C(=O)NO)C(C)(C)SCCN2CCOCC2)cc1 (configuration not stated) | 72
Cc1nn(-c2ccccn2)c2ncc(C(=O)N(C)c3ccccc3)c(OCc3ccccc3)c12 | 92 to 93
CCCCCCCCCCCCCCCCCC(=O)Nc1cccc(N(CC(=O)OC)CC(=O)OC)c1 | 78 to 79
CCc1cc(C(O)(CC)CC)ccc1-c1cc(OCc2ccc(CO)c(CO)c2)ccc1CC | 93
CNC(=O)c1ccc(Nc2nccc(-c3cccnc3)n2)cc1 | 254 to 257
CCN(CC)CCNC(=O)c1cnc2ccc(I)cc2c1F | 88 to 90
COc1ccccc1C(C)C(Sc1ccc(C(=O)O)cc1)n1ccnc1 (configuration not stated) | 118 to 124
CNC(=O)Nc1c2c(nc3sccc13)CCCC2 | 253 to 255
COc1cc(C(=O)NS(C)(=O)=O)cc(OC)c1-c1ccc(C[C@H](NC(=O)c2c(Cl)cccc2Cl)C(=O)O)cc1 | 277 to 278
CCCCOc1ccc2c3c([nH]c2c1)CC(NC(C)=O)CC3 (configuration not stated) | 182 to 184
CCNC(=O)c1ccc(F)c(Cl)c1 | 102
CCC(=O)Nc1ccc(C=CC(=O)O)cc1 | 243
CC(=O)c1cn(C(=O)OC(C)(C)C)c2ccc(OCc3ccccc3)cc12 | 114 to 116
O=C(Nc1c(F)cccc1Cl)c1ccc(-n2nc(C(F)(F)F)cc2C2CC2)c(F)c1 | 148 to 152
Cc1cc(N)c(I)c(C)n1 | 103 to 110
C=CCC(CO)(NC)c1ccc(Cl)c(Cl)c1 (configuration not stated) | 78 to 78.5

SMILES | melting point [°C]
O=C(NCc1ccco1)c1ccc(-c2ccc3nnn(Cc4ccc5ncccc5c4)c3n2)cc1F | 144 to 147
CNC(=O)N1CCc2[nH]cnc2C1c1ccccc1 (configuration not stated) | 180
CCN(CC)CC1CCCCN1CCNC(=O)N1c2ccccc2NC(=O)c2ccccc21 (configuration not stated) | 123 to 125
COc1cc2c(cc1C(=O)c1cc(C(C)(C)C)c(O)c(C(C)(C)C)c1)CCC2 | 154 to 156
CCC(C)CNC(=S)NS(=O)(=O)c1sc(Cl)cc1N (configuration not stated) | 116 to 118
COc1ccc(-c2nc(COc3cccc([N+](=O)[O-])c3)c(C)o2)cc1 | 109 to 111
CC(=O)Nc1nc(CCc2ccc(CBr)cc2)cs1 | 148 to 150
Cc1ccc(C(=O)Cc2ccccc2)cc1 | 107 to 111
COc1cc(C(=O)CN2CCN(c3ccncc3)CC2)ccc1OCC(=O)O | 218 to 224
O=C(O)Cc1ccc(-c2ccc(F)cc2F)cc1 | 143 to 145
O=C1CCCc2c1ccc(O)c2O | 191 to 194
O=C(Cl)c1cccnc1Nc1cccc(Cl)c1 | 112 to 115
CCCCc1nc(Cl)c(C(=O)O)n1Cc1ccc2oc(-c3ccccc3C#N)c(OC)c2c1 | 158 to 160
Cc1nn(-c2ccccn2)c2c1C(=NO)CC(C)(C)C2Br (configuration not stated) | 195 to 196
Oc1ccc2nc(Cc3ccc(Cl)cc3)oc2c1 | 167 to 168
COC(=O)c1ccc([N+](=O)[O-])c([N+](=O)[O-])c1 | 85 to 86
CCOC(=O)c1cc2cc(CC#N)ccc2o1 | 76 to 77
CC(C)(CO)NC(=O)c1n[nH]cc1NC(=O)c1ccccn1 | 193 to 195
CC(=O)NCc1cncn1C1c2ccccc2CCC1(C)C (configuration not stated) | 166
N=C(NS(=O)(=O)c1ccc(Cl)cc1)C1CN(c2ccc(Cl)cc2)C(c2ccc(Cl)cc2Cl)=N1 (configuration not stated) | 165 to 166
CC(=O)COc1ccc2ccc(Oc3c(Cl)cc(C(F)(F)F)cc3Cl)cc2c1 | 132
CCS(=O)C1(Cl)CC2C(Cc3ccccc3)C(=O)N2C1C(=O)OCc1ccccc1 (configuration not stated) | 118 to 123
CC(c1cn(C)c2ccccc12)N(O)C(N)=O (configuration not stated) | 149 to 150
CC(=O)c1c(N)ncn1C1c2ccccc2CC1(C)C (configuration not stated) | 174 to 175
CCCCc1nc(=O)c2cc(C#C[Si](C)(C)C)c(F)cc2[nH]1 | 192
Cc1cn2c(N)c(Cl)cc(C(=O)NCC3CCN(C(C)C(=O)C(C)(C)C)CC3)c2n1 (configuration not stated) | 207

SMILES | melting point [°C]
CC(=O)N1CCN(C(=O)Cn2c(-c3ccc(Cl)cc3)nc3cccnc32)CC1 | 217 to 219
O=S1(=O)NCN(CCF)c2cc(Cl)cc(Cl)c21 | 180 to 184
CCN(CC)c1nc2cc(C)nn2c2ccncc12 | 118
CN1CCCC1=NCCSc1c[nH]c2ccccc12 | 144 to 146
O=C(O)c1cccc2c1CCc1ccc(F)cc1S2 | 209 to 211
COC(=O)c1cc(N)c(C(F)(F)F)cc1NC(C)=O | 143 to 152
CCN(CC)C(=O)N[C@H]1CC[C@H](NC(=O)N(CC)CC)CC1 | 225 to 228
CCn1c(=O)c(-c2c(Cl)cccc2Cl)cc2cnc(Nc3ccccc3)nc21 | 223 to 225
O=C1CSc2cccc(F)c2N1 | 190 to 191
COc1cc(CC#N)c(CCN)cc1OC | 78
O=C(NC(=O)c1ccccc1Cl)Nc1ccc(C(F)(F)F)cc1 | 214
CCN(CC)C(=O)c1ccccc1-c1ccc(OC)cc1 | 46 to 47
CSC(=CC(=O)c1ccccc1Br)N1CCN2CCC1CC2 | 107 to 108
Cc1nc2c(cc1Cl)C(=O)N(C)CC(CCCl)O2 (configuration not stated) | 65 to 69
CN1CCN(CCOc2ccccc2CC(=O)N2C[C@@H]3C(=O)CCC(c4ccccc4)(c4ccccc4)[C@@H]3C2)CC1 (racemic) | 78
Nc1ccc(CCOCCCCCCNCC(O)c2cc(Cl)c(N)c(Cl)c2)cc1 (configuration not stated) | 71 to 73
O=C(N[C@@H](Cc1ccc(C(=O)c2ccccc2)cc1)C(=O)O)OCC1c2ccccc2-c2ccccc21 | 115 to 117
CSc1nn2c(O)cc(O)nc2c1S(=O)(=O)c1ccccc1 | > 230
O=C(Nc1cccc2c1ncc1c(=O)n3ccnc3sc12)c1c(Cl)cccc1Cl | > 250
COc1ccccc1C1C(C(=O)c2ccc(C)cc2)=C(O)C(=O)N1c1ccc(C)nn1 (configuration not stated) | 211 to 213
Cn1nc(N)nc1NCCCOc1cccc2c(N3CCCCC3)nccc12 | 173
CCN1c2ncc(CCc3ccc(N(C)S(C)(=O)=O)cc3)cc2C(=O)N(C)c2ccc(Cl)nc21 | 196 to 198
COc1ccc(-c2nc(Cl)cc(Cl)n2)cc1 | 127 to 128
CN1Cc2cncn2-c2ccc(F)c(Cl)c2C1=O | 234 to 235
CC(=O)SCC(=O)Nc1ccc(C(=O)O)cc1 | 233 to 234
CN1CCN(C2=Nc3cc(F)ccc3Nc3ccsc32)CC1 | 206 to 208

SMILES | melting point [°C]
NNC1=Nc2ccc(I)cc2C(c2ccccc2F)=NC1 | 179 to 181
CN1C(C)(C)CC(OC(=O)NNC(=O)C(=O)NC2CC(C)(C)NC(C)(C)C2)CC1(C)C | 165 to 170
O=C1NC(=S)NC(=O)C1=Cc1cccc2ccccc12 | 280
COc1ccc(-n2cnc3ccc(-c4nnc(SC)o4)cc32)cc1 | 187 to 188
O=C1/C(=C/c2cccs2)CNc2cc(OCCn3ccnc3)ccc21 | 211 to 213
COC(=O)C(Cc1ccc([N+](=O)[O-])c(OCc2ccccc2)c1)(NC(=O)OC(C)(C)C)C(=O)OC | 114 to 116
CN(C)C1CC2=CNC=C3C=C(C#N)OCC1=C32 (configuration not stated) | 205 to 207
COc1cc(C)nc(C#N)n1 | 80 to 85
CCOCCOc1ccc(-c2ccc3c(c2)C=C(C(=O)Nc2ccc(CN(C)C4CCOCC4)cc2)CCS3(=O)=O)cc1OCC | 164 to 168
CC(=O)Nc1cc2c(cc1[N+](=O)[O-])OC(C)(C)O2 | 173 to 174
NC1=CC(=O)C(N)=C(CCCCCC2=C(N)C(=O)C=C(N)C2=O)C1=O | > 250
CC(C)N1Cc2c(-n3c(=O)cc(C(F)(F)F)[nH]c3=O)ccc(Cl)c2C1=O | > 250
CC[C@H](C)[C@H](NC(=O)O[C@@H](CC(C)C)C(=O)O)C(=O)NC(C)C | 179 to 180
CCOC(=O)COc1ccc2c(c1)C[C@@H](NC[C@H](O)c1ccccc1)CC2 | 108 to 111
O=Cc1ccccc1OCCOc1ccccc1C=O | 129
CCC12CCC3C4=C(CCC3C1C=CC2=O)CC(OC)=CC4 (configuration not stated) | 89 to 91
COc1ccc(COC(=O)C(=CNc2ncccc2OC(=S)N(C)C)C(=O)OCc2ccc(OC)cc2)cc1 | 117 to 118
O=C1NCNCC1(c1ccccc1)c1ccccn1 (configuration not stated) | 201 to 203
CC(=O)c1csc2ccc(F)cc12 | 90 to 92
COc1ccc(C(=O)N2CCN(c3ccc(N)c(C=CC(=O)O)c3)CC2)cc1OC | 168 to 170
COc1ccc(-c2ccc(C(=O)NO)cc2)cc1OC1CCCC1 | 181 to 183
Cc1cnc(Cn2ncc(-c3ccc(S(C)(=O)=O)cc3)c(-c3ccc(F)cc3)c2=O)s1 | 114 to 116
O=C(CN1CCCCC1)Nc1ccc(-c2cc(-c3c[nH]nc3-c3ccccn3)ccn2)cc1 | 180
COc1ccccc1Oc1c(NS(=O)(=O)c2ccc(C(C)(C)C)cc2)nc(-c2ncccn2)nc1OCCOc1ccc(C(C)O)cc1 (configuration not stated) | 191 to 194
